Test system: 422866-222-R5-J1-PDC complex spheroids viability
Assay: Anticancer human tumor 422866-222-R5-J1-PDC patient-derived pancreatic adenocarcinoma cell line growth inhibition [RAS]
Settings: for IC50: curve of first compound; for viability, T/C: stronger effect = lower value; active means viability on the fitted dose curve at most 10% of control; inactive means the rest
Summary of the method: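 Multi-cell-type spheroids: tumor cells plus HUVEC endothelial cells and mesenchymal stem cells. RAS-pathway inhibitors were combined with targeted agents, each dosed in half-log steps down from clinical Cmax, or from 10 microM when Cmax was unknown.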

[1] = second compound 0.000949 µM, first compound 0.000949 µM
[2] = second compound 0.000949 µM, first compound 0.003 µM
[3] = second compound 0.000949 µM, first compound 0.00949 µM
[4] = second compound 0.000949 µM, first compound 0.03 µM
[5] = second compound 0.000949 µM, first compound 0.0949 µM
[6] = second compound 0.000949 µM, first compound 0.3 µM
[7] = second compound 0.003 µM, first compound 0.000949 µM
[8] = second compound 0.003 µM, first compound 0.003 µM
[9] = second compound 0.003 µM, first compound 0.00949 µM
[10] = second compound 0.003 µM, first compound 0.03 µM
[11] = second compound 0.003 µM, first compound 0.0949 µM
[12] = second compound 0.003 µM, first compound 0.3 µM
[13] = second compound 0.00949 µM, first compound 0.000949 µM
[14] = second compound 0.00949 µM, first compound 0.003 µM
[15] = second compound 0.00949 µM, first compound 0.00949 µM
[16] = second compound 0.00949 µM, first compound 0.03 µM
[17] = second compound 0.00949 µM, first compound 0.0949 µM
[18] = second compound 0.00949 µM, first compound 0.3 µM
[19] = second compound 0.03 µM, first compound 0.000949 µM
[20] = second compound 0.03 µM, first compound 0.003 µM
[21] = second compound 0.03 µM, first compound 0.00949 µM
[22] = second compound 0.03 µM, first compound 0.03 µM
[23] = second compound 0.03 µM, first compound 0.0949 µM
[24] = second compound 0.03 µM, first compound 0.3 µM
[25] = second compound 0.0949 µM, first compound 0.000949 µM
[26] = second compound 0.0949 µM, first compound 0.003 µM
[27] = second compound 0.0949 µM, first compound 0.00949 µM
[28] = second compound 0.0949 µM, first compound 0.03 µM
[29] = second compound 0.0949 µM, first compound 0.0949 µM
[30] = second compound 0.0949 µM, first compound 0.3 µM
[31] = second compound 0.3 µM, first compound 0.000949 µM
[32] = second compound 0.3 µM, first compound 0.003 µM
[33] = second compound 0.3 µM, first compound 0.00949 µM
[34] = second compound 0.3 µM, first compound 0.03 µM
[35] = second compound 0.3 µM, first compound 0.0949 µM
[36] = second compound 0.3 µM, first compound 0.3 µM
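Further: spheroids exposed to compounds for 7 days.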
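Wherever viability, T/C is given: 100% = DMSO vehicle control viability.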

C=CC(=O)N1CCN(c2nc(OCC3CCCN3C)nc3c(F)c(-c4nc(N)cc(C)c4C(F)(F)F)c(Cl)cc23)C(C)C1 (stereo unspecified) + CCn1c(-c2cccnc2C(C)OC)c2c3cc(ccc31)N1CCOC(CC(NC(=O)C(C(C)C)N(C)C(=O)C3(F)CCN(C(=O)C#CC(C)(C)N(C)C)CC3)C(=O)N3CCCC(N3)C(=O)OCC(C)(C)C2)C1
inactive: viability, T/C (second compound 0.000949 µM, first compound 0.00316 µM) 24.9% | viability, T/C (second compound 0.000949 µM, first compound 0.01 µM) 25.5% | viability, T/C (second compound 0.000949 µM, first compound 0.0316 µM) 23.4% | viability, T/C (second compound 0.000949 µM, first compound 0.1 µM) 23.8% | viability, T/C (second compound 0.000949 µM, first compound 0.316 µM) 21.1% | viability, T/C (second compound 0.000949 µM, first compound 1 µM) 22.7% | viability, T/C (second compound 0.003 µM, first compound 0.00316 µM) 24.1% | viability, T/C (second compound 0.003 µM, first compound 0.01 µM) 25.6% | viability, T/C (second compound 0.003 µM, first compound 0.0316 µM) 21.5% | viability, T/C (second compound 0.003 µM, first compound 0.1 µM) 22.8% | viability, T/C (second compound 0.003 µM, first compound 0.316 µM) 21.1% | viability, T/C (second compound 0.003 µM, first compound 1 µM) 24% | viability, T/C (second compound 0.00949 µM, first compound 0.00316 µM) 22.8% | viability, T/C (second compound 0.00949 µM, first compound 0.01 µM) 24.2% | viability, T/C (second compound 0.00949 µM, first compound 0.0316 µM) 23.3% | viability, T/C (second compound 0.00949 µM, first compound 0.1 µM) 20.6% | viability, T/C (second compound 0.00949 µM, first compound 0.316 µM) 21.6% | viability, T/C (second compound 0.00949 µM, first compound 1 µM) 22.1% | viability, T/C (second compound 0.03 µM, first compound 0.00316 µM) 21.2% | viability, T/C (second compound 0.03 µM, first compound 0.01 µM) 23.9% | viability, T/C (second compound 0.03 µM, first compound 0.0316 µM) 17.8% | viability, T/C (second compound 0.03 µM, first compound 0.1 µM) 18.9% | viability, T/C (second compound 0.03 µM, first compound 0.316 µM) 21.1% | viability, T/C (second compound 0.03 µM, first compound 1 µM) 22.4% | viability, T/C (second compound 0.0949 µM, first compound 0.00316 µM) 21.4% | viability, T/C (second compound 0.0949 µM, first compound 0.01 µM) 19.8% | viability, T/C (second compound 0.0949 µM, first compound 0.0316 µM) 20.1% | viability, T/C (second compound 0.0949 µM, first compound 0.1 µM) 20.2% | viability, T/C (second compound 0.0949 µM, first compound 0.316 µM) 19.7% | viability, T/C (second compound 0.0949 µM, first compound 1 µM) 21.3% | viability, T/C (second compound 0.3 µM, first compound 0.00316 µM) 18% | viability, T/C (second compound 0.3 µM, first compound 0.01 µM) 18% | viability, T/C (second compound 0.3 µM, first compound 0.0316 µM) 20.5% | viability, T/C (second compound 0.3 µM, first compound 0.1 µM) 19.6% | viability, T/C (second compound 0.3 µM, first compound 0.316 µM) 16.5% | viability, T/C (second compound 0.3 µM, first compound 1 µM) 20%
< 3.16 nM: IC50 (second compound 0.000949 µM) | IC50 (second compound 0.003 µM) | IC50 (second compound 0.00949 µM) | IC50 (second compound 0.03 µM) | IC50 (second compound 0.0949 µM) | IC50 (second compound 0.3 µM)

CC1(C)CCC(Nc2ncc(C(F)(F)F)c(-c3c[nH]c4c(P(C)(C)=O)c(C#N)ccc34)n2)CN1 (stereo unspecified) + CCn1c(-c2cccnc2C(C)OC)c2c3cc(ccc31)N1CCOC(CC(NC(=O)C(C(C)C)N(C)C(=O)C3(F)CCN(C(=O)C#CC(C)(C)N(C)C)CC3)C(=O)N3CCCC(N3)C(=O)OCC(C)(C)C2)C1
inactive: viability, T/C [1] 27.9% | viability, T/C [2] 27% | viability, T/C [3] 30.9% | viability, T/C [4] 31.1% | viability, T/C [5] 31% | viability, T/C [6] 32.6% | viability, T/C [7] 25.2% | viability, T/C [8] 27% | viability, T/C [9] 27.6% | viability, T/C [10] 24.8% | viability, T/C [11] 28.6% | viability, T/C [12] 26.9% | viability, T/C [13] 24.1% | viability, T/C [14] 24.4% | viability, T/C [15] 26.1% | viability, T/C [16] 26.2% | viability, T/C [17] 26.1% | viability, T/C [18] 27.2% | viability, T/C [19] 24.2% | viability, T/C [20] 25.8% | viability, T/C [21] 24.2% | viability, T/C [22] 26.3% | viability, T/C [23] 28.2% | viability, T/C [24] 28.5% | viability, T/C [25] 20.1% | viability, T/C [26] 22.7% | viability, T/C [27] 25.4% | viability, T/C [28] 23.6% | viability, T/C [29] 26.7% | viability, T/C [30] 25.6% | viability, T/C [31] 20% | viability, T/C [32] 22.8% | viability, T/C [33] 24.2% | viability, T/C [34] 24.8% | viability, T/C [35] 28.1% | viability, T/C [36] 24.6%
< 0.949 nM: IC50 (second compound 0.000949 µM) | IC50 (second compound 0.003 µM) | IC50 (second compound 0.00949 µM) | IC50 (second compound 0.03 µM) | IC50 (second compound 0.0949 µM) | IC50 (second compound 0.3 µM)

CCc1c2c(nc3ccc(O)cc13)-c1cc3c(c(=O)n1C2)COC(=O)[C@]3(O)CC + CCn1c(-c2cccnc2C(C)OC)c2c3cc(ccc31)N1CCOC(CC(NC(=O)C(C(C)C)N(C)C(=O)C3(F)CCN(C(=O)C#CC(C)(C)N(C)C)CC3)C(=O)N3CCCC(N3)C(=O)OCC(C)(C)C2)C1
< 0.949 nM: IC50 (second compound 0.000949 µM) | IC50 (second compound 0.003 µM) | IC50 (second compound 0.00949 µM) | IC50 (second compound 0.03 µM) | IC50 (second compound 0.0949 µM) | IC50 (second compound 0.3 µM)
inactive: viability, T/C [1] 28.2% | viability, T/C [2] 22.7% | viability, T/C [3] 26.9% | viability, T/C [4] 22% | viability, T/C [5] 19.6% | viability, T/C [6] 15.6% | viability, T/C [7] 24.8% | viability, T/C [8] 15.5% | viability, T/C [9] 15.5% | viability, T/C [10] 14.1% | viability, T/C [11] 15.5% | viability, T/C [12] 15.1% | viability, T/C [13] 22.1% | viability, T/C [14] 17.7% | viability, T/C [15] 17.7% | viability, T/C [16] 15% | viability, T/C [17] 14.6% | viability, T/C [18] 12.3% | viability, T/C [19] 19.5% | viability, T/C [20] 15.7% | viability, T/C [21] 14.8% | viability, T/C [22] 13.9% | viability, T/C [23] 13.2% | viability, T/C [24] 10.7% | viability, T/C [25] 15.9% | viability, T/C [26] 13% | viability, T/C [27] 11.3% | viability, T/C [28] 12.3% | viability, T/C [29] 11.1% | viability, T/C [30] 9.62% | viability, T/C [31] 13.9% | viability, T/C [32] 14.3% | viability, T/C [33] 11.5% | viability, T/C [34] 10.7%
active: viability, T/C [35] 10.3% | viability, T/C [36] 7%
